Measured values reported in PubChem BioAssay AID2060493 (Molecular Pharmacology Branch, DTP, NCI, 2025).

System: 616215-338-R-J1-PDC tumor spheroids, viability
Assay: Anticancer human tumor 616215-338-R-J1-PDC patient-derived colon adenocarcinoma cell line growth inhibition [GQUAD]
Conditions: spheroids with HUVEC and MSC; for IC50: curve of first compound; for viability, T/C: stronger effect = lower value
In short: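 Tumor cells were grown as complex spheroids with HUVEC endothelial cells and mesenchymal stem cells as stroma. G-quadruplex stabilizers were combined with targeted agents over half-log dilutions from near the clinical Cmax, or from 10 microM.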

[1] = second compound 0.0316 µM, first compound 0.0316 µM
[2] = second compound 0.0316 µM, first compound 0.1 µM
[3] = second compound 0.0316 µM, first compound 0.316 µM
[4] = second compound 0.0316 µM, first compound 1 µM
[5] = second compound 0.0316 µM, first compound 3.16 µM
[6] = second compound 0.0316 µM, first compound 10 µM
[7] = second compound 0.1 µM, first compound 0.0316 µM
[8] = second compound 0.1 µM, first compound 0.1 µM
[9] = second compound 0.1 µM, first compound 0.316 µM
[10] = second compound 0.1 µM, first compound 1 µM
[11] = second compound 0.1 µM, first compound 3.16 µM
[12] = second compound 0.1 µM, first compound 10 µM
[13] = second compound 0.316 µM, first compound 0.0316 µM
[14] = second compound 0.316 µM, first compound 0.1 µM
[15] = second compound 0.316 µM, first compound 0.316 µM
[16] = second compound 0.316 µM, first compound 1 µM
[17] = second compound 0.316 µM, first compound 3.16 µM
[18] = second compound 0.316 µM, first compound 10 µM
[19] = second compound 1 µM, first compound 0.0316 µM
[20] = second compound 1 µM, first compound 0.1 µM
[21] = second compound 1 µM, first compound 0.316 µM
[22] = second compound 1 µM, first compound 1 µM
[23] = second compound 1 µM, first compound 3.16 µM
[24] = second compound 1 µM, first compound 10 µM
[25] = second compound 3.16 µM, first compound 0.0316 µM
[26] = second compound 3.16 µM, first compound 0.1 µM
[27] = second compound 3.16 µM, first compound 0.316 µM
[28] = second compound 3.16 µM, first compound 1 µM
[29] = second compound 3.16 µM, first compound 3.16 µM
[30] = second compound 3.16 µM, first compound 10 µM
[31] = second compound 10 µM, first compound 0.0316 µM
[32] = second compound 10 µM, first compound 0.1 µM
[33] = second compound 10 µM, first compound 0.316 µM
[34] = second compound 10 µM, first compound 1 µM
[35] = second compound 10 µM, first compound 3.16 µM
[36] = second compound 10 µM, first compound 10 µM
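Note: spheroids exposed to agents for 7 days before readout.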
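Throughout, for viability, T/C: percent viability relative to DMSO vehicle control wells taken as 100%.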

Q: What does the source list for `C=CC(=O)N1CCN(c2nc(=O)n(-c3c(C)ccnc3C(C)C)c3nc(-c4c(O)cccc4F)c(F)cc23)C(C)C1` (stereo unspecified) + Cc1cnc(CNC(=O)c2c(=O)c3ccc(N4CCCN(C)CC4)nc3n3c2sc2ccccc23)cn1?
A: IC50 (second compound 0.0316 µM): > 10000 nM; IC50 (second compound 0.1 µM): > 10000 nM; IC50 (second compound 0.316 µM): 938 nM; IC50 (second compound 1 µM): < 31.6 nM; IC50 (second compound 3.16 µM): < 31.6 nM; IC50 (second compound 10 µM): < 31.6 nM; viability, T/C [1]: 106%; viability, T/C [2]: 109%; viability, T/C [3]: 99.1%; viability, T/C [4]: 95.9%; viability, T/C [5]: 89.2%; viability, T/C [6]: 63.7%; viability, T/C [7]: 79.8%; viability, T/C [8]: 73.9%; viability, T/C [9]: 43.4%; viability, T/C [10]: 64%; viability, T/C [11]: 94.5%; viability, T/C [12]: 48.5%; viability, T/C [13]: 43.1%; viability, T/C [14]: 69.1%; viability, T/C [15]: 62.8%; viability, T/C [16]: 49.5%; viability, T/C [17]: 43.8%; viability, T/C [18]: 47.6%; viability, T/C [19]: 30.9%; viability, T/C [20]: 41%; viability, T/C [21]: 38.5%; viability, T/C [22]: 34.4%; viability, T/C [23]: 38%; viability, T/C [24]: 41.8%; viability, T/C [25]: 30.6%; viability, T/C [26]: 36.6%; viability, T/C [27]: 32.9%; viability, T/C [28]: 26.6%; viability, T/C [29]: 37%; viability, T/C [30]: 42.5%; viability, T/C [31]: 30.9%; viability, T/C [32]: 28.6%; viability, T/C [33]: 26%; viability, T/C [34]: 35.2%; viability, T/C [35]: 34.4%; viability, T/C [36]: 24.2%

Q: Which IC50 (second compound 0.0316 µM) does the source give for `CCc1c2c(nc3ccc(O)cc13)-c1cc3c(c(=O)n1C2)COC(=O)[C@]3(O)CC` + Cc1cnc(CNC(=O)c2c(=O)c3ccc(N4CCCN(C)CC4)nc3n3c2sc2ccccc23)cn1 here?
A: 9.82 nM

Q: And the IC50 (second compound 0.1 µM)?
A: 5.05 nM

Q: And the IC50 (second compound 0.316 µM)?
A: < 0.999 nM

Q: And the IC50 (second compound 1 µM)?
A: < 0.999 nM

Q: What about the IC50 (second compound 3.16 µM) of the same compound?
A: < 0.999 nM

Q: And the IC50 (second compound 10 µM)?
A: < 0.999 nM

Q: And the viability, T/C (second compound 0.0316 µM, first compound 0.000999 µM)?
A: 105%

Q: And the viability, T/C (second compound 0.0316 µM, first compound 0.00316 µM)?
A: 79.5%

Q: What about the viability, T/C (second compound 0.0316 µM, first compound 0.00999 µM) of the same compound?
A: 47.5%

Q: What about the viability, T/C [1] of the same compound?
A: 30.2%

Q: And the viability, T/C (second compound 0.0316 µM, first compound 0.0999 µM)?
A: 22.1%

Q: And the viability, T/C [3]?
A: 12.9%

Q: What about the viability, T/C (second compound 0.1 µM, first compound 0.000999 µM) of the same compound?
A: 62.2%

Q: What about the viability, T/C (second compound 0.1 µM, first compound 0.00316 µM) of the same compound?
A: 58.3%

Q: And the viability, T/C (second compound 0.1 µM, first compound 0.00999 µM)?
A: 39.8%

Q: And the viability, T/C [7]?
A: 25.6%

Q: And the viability, T/C (second compound 0.1 µM, first compound 0.0999 µM)?
A: 18.2%

Q: What about the viability, T/C [9] of the same compound?
A: 9.44%

Q: What about the viability, T/C (second compound 0.316 µM, first compound 0.000999 µM) of the same compound?
A: 49.3%

Q: What about the viability, T/C (second compound 0.316 µM, first compound 0.00316 µM) of the same compound?
A: 37%

Q: And the viability, T/C (second compound 0.316 µM, first compound 0.00999 µM)?
A: 24.6%

Q: And the viability, T/C [13]?
A: 31.4%

Q: And the viability, T/C (second compound 0.316 µM, first compound 0.0999 µM)?
A: 13.5%

Q: What about the viability, T/C [15] of the same compound?
A: 6.95%

Q: And the viability, T/C (second compound 1 µM, first compound 0.000999 µM)?
A: 38.1%

Q: And the viability, T/C (second compound 1 µM, first compound 0.00316 µM)?
A: 19.4%

Q: And the viability, T/C (second compound 1 µM, first compound 0.00999 µM)?
A: 24.9%

Q: And the viability, T/C [19]?
A: 18.7%

Q: And the viability, T/C (second compound 1 µM, first compound 0.0999 µM)?
A: 13.7%

Q: What about the viability, T/C [21] of the same compound?
A: 0.14%

Q: And the viability, T/C (second compound 3.16 µM, first compound 0.000999 µM)?
A: 20%

Q: And the viability, T/C (second compound 3.16 µM, first compound 0.00316 µM)?
A: 25.2%

Q: And the viability, T/C (second compound 3.16 µM, first compound 0.00999 µM)?
A: 21.1%

Q: What about the viability, T/C [25] of the same compound?
A: 14.4%

Q: And the viability, T/C (second compound 3.16 µM, first compound 0.0999 µM)?
A: 17.8%

Q: And the viability, T/C [27]?
A: 0.15%

Q: And the viability, T/C (second compound 10 µM, first compound 0.000999 µM)?
A: 23.8%

Q: What about the viability, T/C (second compound 10 µM, first compound 0.00316 µM) of the same compound?
A: 22%

Q: And the viability, T/C (second compound 10 µM, first compound 0.00999 µM)?
A: 23.6%

Q: What about the viability, T/C [31] of the same compound?
A: 5.75%

Q: And the viability, T/C (second compound 10 µM, first compound 0.0999 µM)?
A: 0.31%

Q: What about the viability, T/C [33] of the same compound?
A: 0.21%

Q: With `Cc1cccc(N(C)C(=O)C2C(O)CCN2c2nc(C)cc(C(F)(F)F)c2C#N)c1` (stereo unspecified) + Cc1cnc(CNC(=O)c2c(=O)c3ccc(N4CCCN(C)CC4)nc3n3c2sc2ccccc23)cn1 as the compound, how does the IC50 (second compound 0.0316 µM) read?
A: > 10000 nM

Q: What about the IC50 (second compound 0.1 µM) of the same compound?
A: < 31.6 nM

Q: And the IC50 (second compound 0.316 µM)?
A: < 31.6 nM

Q: What about the IC50 (second compound 1 µM) of the same compound?
A: < 31.6 nM

Q: And the IC50 (second compound 3.16 µM)?
A: < 31.6 nM

Q: And the IC50 (second compound 10 µM)?
A: < 31.6 nM

Q: What about the viability, T/C [1] of the same compound?
A: 106%

Q: And the viability, T/C [2]?
A: 101%

Q: What about the viability, T/C [3] of the same compound?
A: 109%

Q: And the viability, T/C [4]?
A: 103%

Q: What about the viability, T/C [5] of the same compound?
A: 95.8%

Q: And the viability, T/C [6]?
A: 98.6%

Q: And the viability, T/C [7]?
A: 37.9%

Q: And the viability, T/C [8]?
A: 68.2%

Q: And the viability, T/C [9]?
A: 56.2%

Q: And the viability, T/C [10]?
A: 80.6%

Q: What about the viability, T/C [11] of the same compound?
A: 81.8%

Q: What about the viability, T/C [12] of the same compound?
A: 49%

Q: And the viability, T/C [13]?
A: 50.5%

Q: What about the viability, T/C [14] of the same compound?
A: 46.1%

Q: What about the viability, T/C [15] of the same compound?
A: 50.2%

Q: And the viability, T/C [16]?
A: 48.9%

Q: And the viability, T/C [17]?
A: 57.9%

Q: And the viability, T/C [18]?
A: 42%

Q: What about the viability, T/C [19] of the same compound?
A: 32.6%

Q: What about the viability, T/C [20] of the same compound?
A: 35.1%

Q: And the viability, T/C [21]?
A: 39.1%

Q: What about the viability, T/C [22] of the same compound?
A: 31.9%

Q: What about the viability, T/C [23] of the same compound?
A: 38.3%

Q: What about the viability, T/C [24] of the same compound?
A: 29.3%

Q: And the viability, T/C [25]?
A: 31.7%

Q: And the viability, T/C [26]?
A: 27.9%

Q: And the viability, T/C [27]?
A: 33.5%

Q: And the viability, T/C [28]?
A: 30.5%

Q: What about the viability, T/C [29] of the same compound?
A: 29.1%

Q: What about the viability, T/C [30] of the same compound?
A: 34.8%

Q: What about the viability, T/C [31] of the same compound?
A: 30.5%

Q: And the viability, T/C [32]?
A: 37%

Q: And the viability, T/C [33]?
A: 31.1%

Q: What about the viability, T/C [34] of the same compound?
A: 26.7%

Q: What about the viability, T/C [35] of the same compound?
A: 32.2%

Q: What about the viability, T/C [36] of the same compound?
A: 29.9%
